According to ChEMBL document CHEMBL4706608, “Design and synthesis of 3-(4-pyridyl)-5-(4-sulfamido-phenyl)-1,2,4-oxadiazole derivatives as novel GSK-3β inhibitors and evaluation of their potential as multifunctional anti-Alzheimer agents” (Eur J Med Chem, 2021):
Activity calls are given as the source filed them. The calls are words filed in the database; no cut-off is given here.

Tests used:
PC-12 [1] = experiment: Neuroprotective activity against H2O2-induced cytotoxicity in rat PC12 cells assessed as increase in cell viability at 30 uM preincubated for 3 hrs followed by H2O2 addition and measured after 24 hrs by MTT assay (reference value: 24.8 to 41.7%); format: functional
[2] = Cytotoxicity against rat PC-12 cells assessed as cell viability at 30 uM by MTT assay relative to control; format: cell-based; settings: read-out: Activity
[3] = Cytotoxicity against rat PC-12 cells assessed as cell viability at 50 uM by MTT assay relative to control; format: cell-based; settings: read-out: Activity
[4] = biological target: Glycogen synthase kinase-3 beta (Homo sapiens, UniProt P49841); experiment: Inhibition of GSK3beta (unknown origin) measured after 40 mins by ADP-Glo assay
Sequence of Glycogen synthase kinase-3 beta (P49841 whole entry): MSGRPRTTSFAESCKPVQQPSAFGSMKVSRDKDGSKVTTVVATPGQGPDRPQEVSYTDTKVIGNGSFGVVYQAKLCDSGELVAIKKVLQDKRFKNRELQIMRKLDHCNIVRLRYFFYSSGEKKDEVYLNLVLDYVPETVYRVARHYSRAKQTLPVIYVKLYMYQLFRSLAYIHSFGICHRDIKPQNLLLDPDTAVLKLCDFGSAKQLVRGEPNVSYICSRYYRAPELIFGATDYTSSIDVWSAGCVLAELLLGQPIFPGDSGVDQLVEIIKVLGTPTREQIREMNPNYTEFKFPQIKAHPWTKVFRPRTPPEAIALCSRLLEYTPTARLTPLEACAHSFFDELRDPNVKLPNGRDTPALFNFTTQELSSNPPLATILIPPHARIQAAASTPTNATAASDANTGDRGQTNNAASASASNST

BV-2 = experiment: Anti-neuroinflammation in mouse BV2 cells assessed as inhibition of LPS-induced NO production preincubated for 1 hr followed by LPS addition measured after 24 hrs by Griess reagent based assay; format: functional, cell-based
PC-12 [5] = experiment: Neuroprotective activity against H2O2-induced cytotoxicity in rat PC12 cells assessed as increase in cell viability at 10 uM preincubated for 3 hrs followed by H2O2 addition and measured after 24 hrs by MTT assay (reference value: 24.8 to 41.7%); format: functional
HepG2 = experiment: Increase in glucose consumption in human HepG2 cells at 20 uM after 24 hrs by glucose oxidase assay; format: functional, cell-based

| Compound | Activity (PC-12 [1]) | viability at 30 µM [2] | viability at 50 µM [3] | IC50 [4] | IC50 (BV-2) | Activity (PC-12 [5]) | Activity (HepG2) |
| --- | --- | --- | --- | --- | --- | --- | --- |
| Cc1ccccc1Nc1cc(-c2noc(-c3ccc(NS(=O)(=O)c4ccc(C(C)(C)C)cc4)cc3)n2)ccn1 | 69.3% | 100% | 99.3% | 2290 nM | 6.07 µM | 51.5% |  |
| CC(C)(C)c1ccc(Nc2cc(-c3noc(-c4ccc(NS(=O)(=O)c5ccc(C(C)(C)C)cc5)cc4)n3)ccn2)cc1 | 70.1% | 96.2% | 99.7% | 560 nM | 10.9 µM | 61.3% | Active |
| CC(=O)Nc1cccc(S(=O)(=O)Nc2ccc(-c3nc(-c4ccnc(Nc5ccc(OC(F)(F)F)cc5)c4)no3)cc2)c1 | 54.7% | 93.2% | 79.2% | 2170 nM | 7.55 µM | 51.6% | inactive |
| CC(C)(C)c1ccc(S(=O)(=O)Nc2ccc(-c3nc(-c4ccnc(Nc5ccc(OC(F)(F)F)cc5)c4)no3)cc2)cc1 | 63.1% | 96.3% | 95.3% | 7660 nM | 0.72 µM | 48.1% |  |
| Cc1ccc(Nc2cc(-c3noc(-c4ccc(NS(=O)(=O)c5ccc(C(C)(C)C)cc5)cc4)n3)ccn2)cc1 | 64.4% | 97.9% | 87.9% | 4560 nM | 1.5 µM | 59.4% |  |
| O=S(=O)(Nc1ccc(-c2nc(-c3ccnc(Nc4ccc(OC(F)(F)F)cc4)c3)no2)cc1)c1ccc(Br)cc1 | 55.8% | 102% | 82.5% | 3120 nM | 5.16 µM | 52.3% |  |
| O=S(=O)(Nc1ccc(-c2nc(-c3ccnc(Nc4ccc(OC(F)(F)F)cc4)c3)no2)cc1)c1ccc(OC(F)(F)F)cc1 | 32.4% | 98.7% | 100% | 8740 nM | 4.22 µM | 30.6% |  |
| CC(C)(C)c1ccc(S(=O)(=O)Nc2ccc(-c3nc(-c4ccnc(Nc5ccc(Cl)cc5F)c4)no3)cc2)cc1 | 49.6% | 98.5% | 88.5% | 2850 nM | 4.4 µM | 46% |  |
| O=S(=O)(Nc1ccc(-c2nc(-c3ccnc(Nc4ccc(OC(F)(F)F)cc4)c3)no2)cc1)c1ccc(Cl)s1 | 32.7% | 97.9% | 87.9% | 2980 nM | 6.23 µM | 27.1% |  |
| COC(=O)c1ccc(S(=O)(=O)Nc2ccc(-c3nc(-c4ccnc(Nc5ccc(OC(F)(F)F)cc5)c4)no3)cc2)s1 | 30.6% | 97.2% | 98.6% | 1190 nM | 1.31 µM | 25.6% |  |
| COc1ccc(S(=O)(=O)Nc2ccc(-c3nc(-c4ccnc(Nc5ccc(OC(F)(F)F)cc5)c4)no3)cc2)cc1 | 68.6% | 99.2% | 92.2% | 15400 nM | 3.23 µM | 55.8% | Active |
| O=S(=O)(Nc1ccc(-c2nc(-c3ccnc(Nc4ccc(OC(F)(F)F)cc4)c3)no2)cc1)c1cccc(C(F)(F)F)c1 | 60.7% | 97.4% | 90.4% | 2630 nM | 1.49 µM | 54.6% | inactive |
| O=[N+]([O-])c1cccc(S(=O)(=O)Nc2ccc(-c3nc(-c4ccnc(Nc5ccc(OC(F)(F)F)cc5)c4)no3)cc2)c1 | 64.7% | 94.3% | 94.3% | 8320 nM | 2.15 µM | 53.7% |  |
| O=S(=O)(Nc1ccc(-c2nc(-c3ccnc(Nc4ccc(OC(F)(F)F)cc4)c3)no2)cc1)c1ccc(F)c(Cl)c1 | 40.1% | 98.1% | 92.1% | 18900 nM | 4.96 µM | 36.9% |  |
| CCc1ccc(Nc2cc(-c3noc(-c4ccc(NS(=O)(=O)c5ccc(C(C)(C)C)cc5)cc4)n3)ccn2)cc1 | 36.6% | 98.6% | 83.6% | 3240 nM | 5.4 µM | 31.5% |  |
| CC(C)(C)c1ccc(S(=O)(=O)Nc2ccc(-c3nc(-c4ccnc(Nc5ccc(F)c(C(F)(F)F)c5)c4)no3)cc2)cc1 | 61.7% | 98.9% | 75.9% | 3930 nM | 8.94 µM | 48.9% |  |
| O=S(=O)(Nc1ccc(-c2nc(-c3ccnc(Nc4ccc(OC(F)(F)F)cc4)c3)no2)cc1)c1cccs1 | 54.9% | 97.5% | 94.5% | 7630 nM | 1.3 µM | 57% | Active |
| O=c1c(O)c(-c2ccc(O)c(O)c2)oc2cc(O)cc(O)c12 [QUERCETIN] | 65.7% | 99.1% | 99.5% |  |  | 53.4% |  |
| COc1ccc(Nc2cc(-c3noc(-c4ccc(NS(=O)(=O)c5ccc(C(C)(C)C)cc5)cc4)n3)ccn2)cc1 | 48.1% | 98.6% | 91.6% | 9890 nM | 6.18 µM | 44.5% |  |
| O=S(=O)(Nc1ccc(-c2nc(-c3ccnc(Nc4ccc(OC(F)(F)F)cc4)c3)no2)cc1)c1ccc(F)cc1 | 67.3% | 99.9% | 97.9% | 2690 nM | 4.41 µM | 59.4% |  |
| CC(C)c1ccc(Nc2cc(-c3noc(-c4ccc(NS(=O)(=O)c5ccc(C(C)(C)C)cc5)cc4)n3)ccn2)cc1 | 54.4% | 98.8% | 78.8% | 2070 nM | 7.82 µM | 48.3% |  |
| CC(C)(C)c1ccc(S(=O)(=O)Nc2ccc(-c3nc(-c4ccnc(Nc5ccc(F)c(F)c5)c4)no3)cc2)cc1 | 60.4% | 97.7% | 92.7% | 1320 nM | 2.44 µM | 49.6% | inactive |
| O=S(=O)(Nc1ccc(-c2nc(-c3ccnc(Nc4ccc(OC(F)(F)F)cc4)c3)no2)cc1)c1ccccc1OC(F)(F)F | 49.8% | 91.6% | 85.6% | 1210 nM | 2.53 µM | 40.4% |  |
| CC(C)(C)c1ccc(S(=O)(=O)Nc2ccc(-c3nc(-c4ccnc(Nc5ccc(C(F)(F)F)cc5)c4)no3)cc2)cc1 | 71.9% | 99.1% | 94.1% | 1490 nM | 8.69 µM | 63.2% |  |
| Cc1cccc(Nc2cc(-c3noc(-c4ccc(NS(=O)(=O)c5ccc(C(C)(C)C)cc5)cc4)n3)ccn2)c1 | 68.5% | 93.8% | 93.8% | 940 nM | 10.6 µM | 52.3% |  |
| Oc1ccc(/C=C/c2cc(O)cc(O)c2)cc1 [RESVERATROL] |  |  |  |  | 10.3 µM |  |  |
